Test results: patent US7998989B2, “2-Imino-1,3-thiazoline-based compounds and T-type calcium channel inhibitors containing the same” (Korea Institute of Science and Technology, priority 2007, dated 2011)
Structures can show the parent of a compound that is named as a salt. Where two headings read alike, the source gives them in different places.

Legend:
[1] = target: T1, α1G T-type calcium channel (Homo sapiens, UniProt O43497); test: Assay for % inhibiting activity against T-type calcium channel using FDSS6000 (fluo-3 calcium imaging, KCl activation); assay type: cell-based
T1 construct: host or cells: HEK293
Experimental: In the present invention, in order to examine an efficient inhibitor against the T-type calcium channel, a primary assay for T-type calcium channel inhibiting activity was conducted by a high-efficient assay using FDSS6000, wherein mammal HEK293 cell lines (originated from human kidney carcinoma cells) that specifically express α1G of the T-type calcium channel was used for primary assay. Through the primary assay, compounds that show meaningful inhibition effects were selected. The selected compounds were used in a second assay for T-type calcium channel inhibiting activity using an electrophysiological whole cell patch clamp method, wherein mammal HEK293 cell lines (originated from human kidney carcinoma cells) that specifically express α1G of the T-type calcium channel was used for the second assay. Mibefradil, which had been developed as a T-type calcium channel inhibitor, was used as a reference.
At 12-24 hours before being used for this assay, cells of HEK293 cell line (α1G cell line: KCTC 10519BP, Korean Collection for Type Cultures), which stably express α1G T-type calcium channel and Kir2.1, were sub-cultured in a poly-L-lysine treated 96-well plate with the density of 4×10^4 per well using a 96-well cell dispenser (Titertek). On the day of assay, the 96-well plate to which the cells were attached was washed three times with HEPES buffer solution (150 mM of NaCl, 5 mM of KCl, 1 mM of MgCl2, 2 mM of CaCl2, 10 mM of HEPES, 10 mM of glucose; pH 7.4) using a 96-well plate automatic washing device (Bio Tek), then reacted with HEPES buffer solution containing 5 μM fluo-3/AM and 0.001% Pluronic F-127 at room temperature for 1 hour, to label with fluorescent dye, and then further washed two times with HEPES buffer solution.
Thereafter, at 10 minutes before the measurement using device FDSS6000, washing with HEPES buffer solution containing 10 mM CaCl2 was conducted once more, and the final volume was adjusted to 81 μl. Besides the above 96-well plate containing the cells, two additional drug 96-well plates were provided, wherein the 96-well plates contained an inhibiting drug and KCl (final concentration: 75 mM) for activating the T-type calcium channel, respectively. Since most of cell-based HTS devices are equipped with a liquid application system for injection of drug, but have no liquid sucking system, the inhibiting drug to be tested and KCl were respectively provided at a five-times higher concentration in 10 mM CaCl2 HEPES buffer solution at the amount of 27 μl, diluted by five-times at the final cell plate volume of 135 μl, and then used in this test. The concrete method of measurement using FDSS6000 was as follows. After recording the reference value of 20 seconds, the change of intracellular Ca^2+ concentration that was induced by treatment of the inhibiting drug to be tested for 75 seconds followed by administration of KCl was measured, wherein the percentage (%) inhibition effect of the test drug, through estimating the area of ratio value of 340/380 in the control without treatment of the test drug, was 100%. As a reference drug, 10 μM mibefradil was used.
For accurate calcium imaging, the light source of 4 xenon lamps in FDSS6000 were radiated to selectively expose the cells to the excitation wavelength (340 nm and 380 nm) by a computer-controlled filter wheel. Data was obtained at intervals of 1.23 seconds. The emitter fluorescence light inflowed through a long-pass filter was obtained as an average 340/380 ratio value for each well in the 96-wells by using a CCD camera and a digital fluorescence analyzer in FDSS6000. All image data and analyses were obtained by using a FDSS6000-exclusive program from Hamamatsu Photonics.
The obtained results are shown in Table 2 (the results from the compounds according to the examples of the present invention) and Table 3 (the results from the compounds according to the comparative example where R6 is a phenyl group) [FDSS (% inhibition) 10 μM].

[2] = 10 μM, FDSS (% inhibition), comparative compounds where R6 is a phenyl group, read-out: FDSS
[3] = HEK293, 10 μM, HEK293 cells stably expressing α1G T-type calcium channel and Kir2.1, compounds of the examples, read-out: FDSS (% inhibition)/10uM
[4] = 10 μM, HEK293 cells stably expressing α1G T-type calcium channel and Kir2.1, compounds of the examples, hydrochloride
[5] = 10 μM, HEK293 cells stably expressing α1G T-type calcium channel and Kir2.1, compounds of the examples

T1 sequence (O43497 whole entry): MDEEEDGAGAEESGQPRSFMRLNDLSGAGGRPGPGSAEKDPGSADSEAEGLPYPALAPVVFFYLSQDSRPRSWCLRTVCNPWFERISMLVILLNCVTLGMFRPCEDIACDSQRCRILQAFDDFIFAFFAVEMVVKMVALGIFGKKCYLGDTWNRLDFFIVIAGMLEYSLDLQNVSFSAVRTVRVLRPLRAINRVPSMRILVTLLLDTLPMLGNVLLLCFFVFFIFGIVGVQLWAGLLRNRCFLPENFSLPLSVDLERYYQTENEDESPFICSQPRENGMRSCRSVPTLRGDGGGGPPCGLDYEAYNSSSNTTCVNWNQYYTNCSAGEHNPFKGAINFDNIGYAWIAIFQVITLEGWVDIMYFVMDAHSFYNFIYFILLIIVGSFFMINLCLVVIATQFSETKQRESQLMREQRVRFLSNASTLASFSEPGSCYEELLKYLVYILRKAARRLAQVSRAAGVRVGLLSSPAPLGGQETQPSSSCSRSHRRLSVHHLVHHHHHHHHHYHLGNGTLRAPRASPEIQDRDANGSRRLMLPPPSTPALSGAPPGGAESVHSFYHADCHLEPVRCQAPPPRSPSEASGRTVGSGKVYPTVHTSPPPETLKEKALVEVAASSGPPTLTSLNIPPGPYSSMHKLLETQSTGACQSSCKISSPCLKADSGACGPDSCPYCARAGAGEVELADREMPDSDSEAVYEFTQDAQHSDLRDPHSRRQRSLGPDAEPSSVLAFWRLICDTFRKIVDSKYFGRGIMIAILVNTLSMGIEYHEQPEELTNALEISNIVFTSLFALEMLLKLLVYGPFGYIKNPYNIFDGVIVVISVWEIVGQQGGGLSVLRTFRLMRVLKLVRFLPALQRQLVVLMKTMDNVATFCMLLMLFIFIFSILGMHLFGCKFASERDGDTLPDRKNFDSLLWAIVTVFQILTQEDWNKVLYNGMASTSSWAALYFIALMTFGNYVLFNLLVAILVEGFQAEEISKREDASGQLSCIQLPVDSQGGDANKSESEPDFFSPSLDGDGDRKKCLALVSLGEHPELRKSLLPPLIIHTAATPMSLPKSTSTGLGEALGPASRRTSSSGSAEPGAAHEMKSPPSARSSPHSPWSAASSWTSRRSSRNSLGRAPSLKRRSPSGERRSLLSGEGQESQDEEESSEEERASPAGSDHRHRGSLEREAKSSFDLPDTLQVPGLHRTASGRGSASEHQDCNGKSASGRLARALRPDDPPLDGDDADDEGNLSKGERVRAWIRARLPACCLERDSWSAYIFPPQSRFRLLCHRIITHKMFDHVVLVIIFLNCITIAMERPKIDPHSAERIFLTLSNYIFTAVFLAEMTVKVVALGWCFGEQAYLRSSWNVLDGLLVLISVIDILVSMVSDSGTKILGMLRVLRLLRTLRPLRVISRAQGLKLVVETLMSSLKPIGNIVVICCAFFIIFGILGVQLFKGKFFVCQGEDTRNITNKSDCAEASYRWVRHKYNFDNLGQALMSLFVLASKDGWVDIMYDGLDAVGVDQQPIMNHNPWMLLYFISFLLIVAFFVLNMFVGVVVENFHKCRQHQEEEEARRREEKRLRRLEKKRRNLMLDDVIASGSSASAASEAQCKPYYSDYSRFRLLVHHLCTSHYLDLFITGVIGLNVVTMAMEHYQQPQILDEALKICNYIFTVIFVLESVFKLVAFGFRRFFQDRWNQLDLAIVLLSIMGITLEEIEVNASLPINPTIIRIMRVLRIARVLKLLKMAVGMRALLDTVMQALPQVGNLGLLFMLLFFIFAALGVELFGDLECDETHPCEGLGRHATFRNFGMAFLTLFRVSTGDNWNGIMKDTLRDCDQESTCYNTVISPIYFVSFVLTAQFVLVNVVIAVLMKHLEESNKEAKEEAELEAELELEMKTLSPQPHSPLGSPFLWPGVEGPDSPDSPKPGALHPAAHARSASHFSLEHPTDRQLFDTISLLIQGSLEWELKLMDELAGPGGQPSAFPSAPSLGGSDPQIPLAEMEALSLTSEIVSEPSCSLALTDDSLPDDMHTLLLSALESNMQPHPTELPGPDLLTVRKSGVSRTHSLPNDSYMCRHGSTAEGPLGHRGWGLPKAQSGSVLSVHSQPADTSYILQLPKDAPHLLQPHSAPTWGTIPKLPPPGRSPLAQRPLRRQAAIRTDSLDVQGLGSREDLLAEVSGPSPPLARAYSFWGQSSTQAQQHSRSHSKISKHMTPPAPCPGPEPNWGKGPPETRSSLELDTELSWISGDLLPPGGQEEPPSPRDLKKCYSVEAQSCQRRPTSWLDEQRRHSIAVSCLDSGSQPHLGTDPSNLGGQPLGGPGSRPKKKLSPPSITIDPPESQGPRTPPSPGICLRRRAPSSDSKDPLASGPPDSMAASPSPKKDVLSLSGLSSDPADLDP

An inhibition at 10 µM [1, 2] of 26.2% and a melting point of 250 to 253 °C were found for COc1ccc(N=C2SCC(CC(=O)Nc3ccc(Cl)cc3)N2C)cc1.Cl (stereo not shown) [KHG21648, [2-(4-methoxyphenylimino)-3-methyl-1,3-thiazolidine-4-yl]-N-(4-chlorophenyl)-acetamide hydrochloride] in this work.

An inhibition at 10 µM [1, 2] of 27.8% and a melting point of 228 to 231 °C were found for COc1cccc(N=C2SCC(CC(=O)Nc3ccc(Cl)cc3)N2C)c1.Cl (stereo not shown) [KHG21649, [2-(3-methoxyphenylimino)-3-methyl-1,3-thiazolidine-4-yl]-N-(4-chlorophenyl)-acetamide hydrochloride] in this work.

An inhibition at 10 µM [1, 3] of 30.5% was found for CN1C(=NC2CCCCC2)SCC1CC(=O)Nc1ccc2c(c1)OCO2 (stereo not shown) [KHG24086, (2-cyclohexylimino-3-methyl-1,3-thiazolidine-4-yl)-N-(3,4-methylenedioxyphenyl)-acetamide hydrochloride] in this work.

An inhibition at 10 µM [1, 3] of 35.4% was found for CN1C(=NC2CCCCC2)SCC1CC(=O)Nc1cc(F)ccc1F (stereo not shown) [KHG24087, (2-cyclohexylimino-3-methyl-1,3-thiazolidine-4-yl)-N-(2,5-difluorophenyl)-acetamide hydrochloride] in this work.

An inhibition at 10 µM [1, 3] of 43.1% was found for CCc1ccc(NC(=O)CC2CSC(=NC3CCCC3)N2C)cc1.Cl (stereo not shown) [KHG24092, (2-cyclopentylimino-3-methyl-1,3-thiazolidine-4-yl)-N-(4-ethylphenyl)-acetamide hydrochloride] in this work.

With CCc1ccc(NC(=O)CC2CSC(=NC3CCCC3)N2C)cc1.Cl (stereo not shown) [KHG24093, (2-cyclopentylimino-3-methyl-1,3-thiazolidine-4-yl)-N-(4-ethylphenyl)-acetamide hydrochloride] the “FDSS (% inhibition)/10uM” value [1, 4] was 34.77%.

An inhibition at 10 µM [1, 3] of 53.6% was found for CC(C)c1ccc(NC(=O)CC2CSC(=NC3CCCCC3)N2C)cc1 (stereo not shown) [KHG24110, (2-cyclohexylimino-3-methyl-1,3-thiazolidine-4-yl)-N-(4-isopropylphenyl)-acetamide hydrochloride] in this work.

An inhibition at 10 µM [1, 3] of 33.6% was found for Cl.O=C(CC1CSC(=NC2CCCCC2)N1C1CCCCC1)Nc1ccc(Cl)cc1 (stereo not shown) [KHG24266, [2-cyclohexylimino-3-cyclohexyl-1,3-thiazolidine-4-yl]-N-(4-chlorophenyl)-acetamide hydrochloride] in this work.

An inhibition at 10 µM [1, 3] of 43.9% was found for Cl.O=C(CC1CSC(=NC2CCCCC2)N1C1CCCCC1)Nc1cc(C(F)(F)F)cc(C(F)(F)F)c1 (stereo not shown) [KHG24307, (2-cyclohexylimino-3-cyclohexyl-1,3-thiazolidine-4-yl)-N-(3,5-ditrifluoromethylphenyl)-acetamide hydrochloride] in this work.

An inhibition at 10 µM [1, 3] of 31% was found for Cc1ccc(NC(=O)CC2CSC(=NC3CCCCC3)N2C2CCCCC2)cc1.Cl (stereo not shown) [KHG24313, (2-cyclohexylimino-3-cyclohexyl-1,3-thiazolidine-4-yl)-N-(4-methylphenyl)-acetamide hydrochloride] in this work.

For CCCCc1ccc(NC(=O)CC2CSC(=NC34CC5CC(CC(C5)C3)C4)N2C)cc1.Cl (stereo not shown) [KHG24409], the “FDSS (% inhibition)/10uM” value [1, 5] was 57.43%.

For CN1C(=NC23CC4CC(CC(C4)C2)C3)SCC1CC(=O)Nc1cc(Cl)cc(Cl)c1.Cl (stereo not shown) [KHG24410], the “FDSS (% inhibition)/10uM” value [1, 4] was 64.09%.

For CN1C(=NC23CC4CC(CC(C4)C2)C3)SCC1CC(=O)Nc1ccc(Cl)cc1F.Cl (stereo not shown) [KHG24411], the “FDSS (% inhibition)/10uM” value [1, 5] was 62.67%.

With CN1C(=NC23CC4CC(CC(C4)C2)C3)SCC1CC(=O)Nc1ccccc1.Cl (stereo not shown) [KHG24412] the “FDSS (% inhibition)/10uM” value [1, 5] was 56.4%.

In the case of Cc1ccc(NC(=O)CC2CSC(=NC34CC5CC(CC(C5)C3)C4)N2C)c(Cl)c1.Cl (stereo not shown) [KHG24413], the “FDSS (% inhibition)/10uM” value [1, 4] was 62.08%.

An inhibition at 10 µM [1, 3] of 47.4% was found for CN1C(=NC2CCCCCC2)SCC1CC(=O)Nc1ccc(N)cc1 (stereo not shown) [KHG24448, (2-cycloheptylimino-3-methyl-1,3-thiazolidine-4-yl)-N-(4-aminophenyl)-acetamide hydrochloride] in this work.

An inhibition at 10 µM [1, 3] of 40.5% was found for CN1C(=NC2CCCCCC2)SCC1CC(=O)NCc1ccc(N)cc1 (stereo not shown) [KHG24449, (2-cycloheptylimino-3-methyl-1,3-thiazolidine-4-yl)-N-(4-aminobenzyl)-acetamide hydrochloride] in this work.

An inhibition at 10 µM [1, 3] of 58.2% was found for CN1C(=NC2CCCCC2)SCC1CC(=O)Nc1cc(C(F)(F)F)cc(C(F)(F)F)c1 (stereo not shown) [KHG24529, (2-cyclohexylimino-3-methyl-1,3-thiazolidine-4-yl)-N-(3,5-ditrifluoromethylphenyl)-acetamide hydrochloride] in this work.

With Cc1ccc(NC(=O)CC2CSC(=NC3CCCCC3)N2C2CCCCC2)cc1.Cl (stereo not shown) [KHG24535, (2-cyclohexylimino-3-cyclohexyl-1,3-thiazolidine-4-yl)-N-(4-methylphenyl)-acetamide hydrochloride] the “FDSS (% inhibition)/10uM” value [1, 4] was 40.31%.

An inhibition at 10 µM [1, 3] of 42.6% was found for Cc1ccc(NC(=O)C2CSC(=NC3CCCCCC3)N2C)cc1 (stereo not shown) [KHG24628, (2-cycloheptylimino-3-methyl-1,3-thiazolidine-4-yl)-N-(4-methylphenyl)-carboxamide] in this work.

An inhibition at 10 µM [1, 3] of 56.8% was found for CN1C(=NC2CCCCCC2)SCC1C(=O)Nc1cc(C(F)(F)F)cc(C(F)(F)F)c1 (stereo not shown) [KHG24630, (2-cycloheptylimino-3-methyl-1,3-thiazolidine-4-yl)-N-(3,5-ditrifluoromethylphenyl)-carboxamide] in this work.

A melting point of 278.6 °C was found for CN1C(=NC2CCCCCC2)SCC1C(=O)Nc1ccc(Oc2ccccc2)cc1 (stereo not shown) [KHG24682, (2-cycloheptylimino-3-methyl-1,3-thiazolidine-4-yl)-N-(4-phenoxyphenyl)-carboxamide] in this work.

A melting point of 170.8 °C was found for CN1C(=NC2CCCCCC2)SCC1C(=O)Nc1ccc(C(C)(C)C)cc1 (stereo not shown) [KHG24684, (2-cycloheptylimino-3-methyl-1,3-thiazolidine-4-yl)-N-(4-t-butylphenyl)-carboxamide] in this work.

A melting point of 241.2 °C was found for CN1C(=NC2CCCCCC2)SCC1C(=O)Nc1cc(Cl)ccc1F (stereo not shown) [KHG24686, (2-cycloheptylimino-3-methyl-1,3-thiazolidine-4-yl)-N-(5-chloro-2-fluorophenyl)-carboxamide] in this work.

A melting point of 173.3 °C was found for CCCCc1ccc(NC(=O)C2CSC(=NC3CCCCCC3)N2C)cc1 (stereo not shown) [KHG24689, (2-cycloheptylimino-3-methyl-1,3-thiazolidine-4-yl)-N-(4-n-butylphenyl)-carboxamide] in this work.

For CCCCN1C(=NC23CC4CC(CC(C4)C2)C3)SCC1CC(=O)Nc1ccc2c(c1)OCO2.Cl (stereo not shown) [KHG24803, [2-(1-adamantylimino)-3-n-butyl-1,3-thiazolidine-4-yl]-N-(3,4-dioxymethylenephenyl)-acetamide hydrochloride], the “FDSS (% inhibition)/10uM” value [1, 5] was 66.47%.

In the case of Cl.O=C(CC1CSC(=NC23CC4CC(CC(C4)C2)C3)N1C1CC1)Nc1ccc2c(c1)OCO2 (stereo not shown) [KHG24804, [2-(1-adamantylimino)-3-cyclopropyl-1,3-thiazolidine-4-yl]-N-(3,4-dioxymethylenephenyl)-acetamide hydrochloride], the “FDSS (% inhibition)/10uM” value [1, 5] was 44.67%.

For CCCN1C(=NC23CC4CC(CC(C4)C2)C3)SCC1CC(=O)Nc1ccc2c(c1)OCO2.Cl (stereo not shown) [KHG24837, [2-(1-adamantylimino)-3-n-propyl-1,3-thiazolidine-4-yl]-N-(3,4-dioxymethylenephenyl)-acetamide hydrochloride], the “FDSS (% inhibition)/10uM” value [1, 5] was 68.43%.

With CC(C)N1C(=NC23CC4CC(CC(C4)C2)C3)SCC1CC(=O)Nc1ccc2c(c1)OCO2.Cl (stereo not shown) [KHG24838, [2-(1-adamantylimino)-3-isopropyl-1,3-thiazolidine-4-yl]-N-(3,4-dioxymethylenephenyl)-acetamide hydrochloride] the “FDSS (% inhibition)/10uM” value [1, 5] was 53.33%.
